# Measurements as given in PubChem BioAssay (NCI).
#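 Each compound was tested at five concentrations against cells in 96-well plates for 48 hours. TGI denotes the concentration required for complete inhibition of growth.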
# Key:
# Test in all cases: NCI tumour cell line growth inhibition, 48 h
# MDA-MB-435 = test system: MDA-MB-435
# RXF 393 renal = test system: RXF 393 renal
# NCI-H460 lung = test system: NCI-H460 lung
# HCT-15 colon = test system: HCT-15 colon
# HCT-116 colon = test system: HCT-116 colon
# UACC-62 melanoma = test system: UACC-62 melanoma
# SW-620 colon = test system: SW-620 colon
# NCI-H226 lung = test system: NCI-H226 lung
# T-47D breast = test system: T-47D breast
# IGROV1 ovarian = test system: IGROV1 ovarian
SMILES,TGI (MDA-MB-435) [µM],TGI (RXF 393 renal) [µM],TGI (NCI-H460 lung) [µM],TGI (HCT-15 colon) [µM],TGI (HCT-116 colon) [µM],TGI (UACC-62 melanoma) [µM],TGI (SW-620 colon) [µM],TGI (NCI-H226 lung) [µM],TGI (T-47D breast) [µM],TGI (IGROV1 ovarian) [µM]
C[N+](C)([O-])CCCNc1ccnc2cccc([N+](=O)[O-])c12,> 100,79.1,31.3,61.6,> 100,> 100,> 100,> 100,> 100,> 100
Cc1nc2c(=O)[nH]c3ccc(Cl)cc3c2o1,> 100,> 100,> 100,> 100,> 100,> 100,> 100,> 100,> 100,> 100
CC1CC[C@@]2(OC1)OC1C[C@H]3[C@@H]4CCC5CC(O)CC[C@]5(C)[C@H]4C/C(=N\N(C)C)[C@]3(C)C1[C@@H]2C (stereo not given in full),58.2,37.7,> 100,60.3,60.3,> 100,> 100,> 100,> 100,> 100
COC(=O)[C@H](CCSC)NC(=O)c1ccc(CNC(=O)/C(C)=C/c2ccccc2)cc1,> 100,51.1,> 100,> 100,> 100,> 100,> 100,> 100,> 100,> 100
COc1ccc(C[C@@H]2OC3(C=CC(=O)C=C3)O[C@H]2Cc2ccc(OC)cc2)cc1,3.5,0.79,25.1,0.77,0.33,3.7,0.383,0.652,> 100,1.16
O=S(=O)(/N=C(\NO)Nc1ccc(Cl)cc1)c1ccc(-c2ccccn2)s1,> 100,94.4,> 100,> 100,> 100,> 100,> 100,> 100,> 100,> 100
Cc1ccc2c(=O)c(-c3n[nH]c(=S)s3)c[nH]c2n1,> 100,> 100,> 100,> 100,> 100,> 100,> 100,> 100,> 100,> 100
CC1(C)c2ccccc2C(O)C12CCC(=O)CC2 (stereo not given),> 100,30.8,> 100,> 100,23.2,> 100,> 100,> 100,> 100,> 100
C=CC(Br)(CBr)CCC(Br)C(C)C (stereo not given),33.5,20.3,18.4,17.9,14.3,12.5,5.38,30.8,0.971,11.1
CC1(C)C2CCC(N)(C2)C1O (stereo not given),> 100,> 100,> 100,> 100,> 100,> 100,> 100,> 100,> 100,> 100
